According to PMC8011926 (Journal of Medicinal Chemistry, 2020):
Marks after values point to notes of the source that are not given here. Starred links: 1 amine or outer side, 2 acyl side, 3 side chain; linkers in the order of their positions; H or OH if unused. Non-standard residues stand in square brackets, D forms with d. Residues, ends and D or L forms follow the SMILES beside them. No end group written: not given here. X3 = N[C@@H](Cc1ccccc1)CN(CC(=O)[*:2])[*:1]

Key:
NOP receptor = assay: NOP bias factor, G protein vs β-arrestin 2 (Black–Leff operational model); conditions: for BIAS FACTOR: supplementary CSV (molecular formula strings), repeats Tables 1–7 without confidence limits; for bias factor (CL95%), NOP: ΔΔlog(τ/KA) G protein minus β-arrestin 2, N/OFQ(1–13)-NH2 as standard unbiased ligand, positive = toward G protein, mean of at least five experiments
From the text: The concentration–response curves of each compound were fitted to the Black–Leff operational model, described by Nagi and Pineyro[70] [drawing 3] where [A] is the agonist concentration, the maximal response of the system is given by Em, n is a fitting parameter for the slope, the affinity of the agonist is represented by the equilibrium dissociation constant of the agonist–receptor complex (KA), and the efficacy of the agonist is defined by τ. τ and KA are descriptive parameters of intrinsic efficacy and binding affinity and may be directly obtained by fitting the experimental data to the operational equation and can be expressed as “transduction coefficients” log(τ/KA). The relative efficiency of agonists producing activation of any pathways can thus be quantified with a “normalized” transduction coefficient, namely Δlog(τ/KA). Finally, the bias factors were calculated as difference between Δlog(τ/KA) values for a given agonist between the pathways (G protein and β-arrestin 2) [drawing 4]
Bias factors are expressed as the mean of at least five independent experiments, and CL95% are indicated. Biased factor is considered to be statistically different from 0 when 0 is not included in CL95%. α values have been statistically analyzed with one-way analysis of variance (ANOVA) followed by the Dunnett post hoc test for multiple comparisons; P values less than 0.05 were considered to be statistically significant.

[1] = target: T1, NOP receptor (NOP-RLuc/β-arrestin 2-RGFP) (Homo sapiens, UniProt P41146); assay: NOP/β-arrestin 2 interaction, BRET assay in whole cells; type: cell-based; conditions: for NOP/β-arrestin 2 α ± sem (intrinsic activity): Emax of ligand / Emax of N/OFQ(1–13)-NH2, mean ± sem of five experiments in duplicate; for NOP/β-arrestin 2 pEC50 (CL95%): BRET, whole HEK293 cells co-expressing NOP-RLuc/β-arrestin 2-RGFP, 100,000 cells/well, room temperature, mean of five independent experiments in duplicate, 95% confidence limits
T1 construct: expressed in transfected cells; host or cells: HEK293 (whole cells)
T1 sequence (P41146 whole entry): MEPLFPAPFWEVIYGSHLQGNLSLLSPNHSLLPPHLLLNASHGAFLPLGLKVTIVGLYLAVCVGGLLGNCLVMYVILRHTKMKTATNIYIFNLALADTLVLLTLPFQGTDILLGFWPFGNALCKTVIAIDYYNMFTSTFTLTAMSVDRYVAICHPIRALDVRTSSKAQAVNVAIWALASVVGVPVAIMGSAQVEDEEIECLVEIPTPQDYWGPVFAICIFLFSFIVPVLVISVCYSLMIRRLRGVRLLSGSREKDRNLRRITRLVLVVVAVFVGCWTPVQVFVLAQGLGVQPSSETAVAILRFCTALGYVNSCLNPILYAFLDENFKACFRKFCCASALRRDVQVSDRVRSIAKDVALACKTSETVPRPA
Experimental: (§1) For this study, human embryonic kidney (HEK293) cells, permanently co-expressing the different pairs of fusion proteins NOP-RLuc/Gβ1-RGFP and NOP-RLuc/β-arrestin 2-RGFP, and SH-SY5Y cells stably, co-expressing the different pairs of fusion proteins mu-RLuc/Gβ1-RGFP and mu-RLuc/β-arrestin 2-RGFP or delta-RLuc/Gβ1-RGFP and delta-RLuc/β-arrestin 2-RGFP, were used. Cells were prepared and cultured, as described previously.[19],[23] Cells were grown in Dulbecco’s modified Eagle’s medium (DMEM)/HAMS F12 (1:1) supplemented with 10% fetal bovine serum, penicillin G (100 units/mL), streptomycin (100 μg mL^–1), L-glutamine (2 mM), fungizone (1 μg mL^–1), geneticin (G418; 200 μg mL^–1), and hygromycin B (100 μg mL^–1) in a humidified atmosphere of 5% CO2 at 37 °C. For G protein experiments, enriched plasma membrane aliquots from transfected cells were prepared by differential centrifugation; cells were detached with phosphate buffered saline (PBS)/EDTA solution (1 mM, pH 7.4 NaOH), then, after 5 min 500g centrifugation, Dounce-homogenized (30 strokes) in cold homogenization buffer (tris(hydroxymethyl)aminomethane 5 mM, EGTA 1 mM, DTT 1 mM, pH 7.4 HCl) in the presence of sucrose (0.32 M). Three following centrifugations were performed at 10 min 1000g (4 °C), and the supernatants were kept. Two 20 min 24,000g (4 °C) subsequent centrifugations (the second in the absence of sucrose) were performed for separating enriched membranes that, after discarding the supernatant, were kept in ultrapure water at −80 °C.[67] The protein concentration in membrane preparations was determined using the QPRO-BCA kit (Cyanagen Srl, Bologna, IT) and the Ensight (PerkinElmer, Waltham, USA) in the spectrophotometer mode.
(§2) Luminescence in membranes was recorded in 96-well untreated white opaque microplates, while in whole cells, it was recorded in 96-well sterile poly-D-lysine-coated white opaque microplates (PerkinElmer, Waltham, MA, USA) using the luminometer Victor 2030 (PerkinElmer, Waltham, MA, USA). For the determination of receptor/G protein interactions, membranes (3 μg of protein) prepared from cells co-expressing NOP (or mu or delta)/RLuc and Gβ1/RGFP were added to wells in DPBS. For the determination of receptor/β-arrestin 2 interactions, cells co-expressing NOP (or mu or delta)/RLuc and β-arrestin 2/RGFP were plated 24 h before the experiment in poly-D-lysine-treated plates (100,000 cells/well). The cells were prepared for the experiment substituting the medium with PBS with MgCl2 (0.5 mM) and CaCl2 (0.9 mM). Coelenterazine at a final concentration of 5 μM was injected 15 min prior to reading the cell plate. Different concentrations of ligands in 20 μL of PBS–BSA 0.01% were added and incubated 5 min before reading luminescence. […] The BRET ratio was measured 15 min after agonist injection. All experiments were performed at room temperature.
(§3) The pharmacological terminology adopted in this paper is consistent with IUPHAR recommendations.[68] All data are expressed as the mean ± sem of five independent experiments made in duplicate. […] Ligand efficacy was expressed as intrinsic activity (α), calculated as the ratio between the Emax of the ligand and that of the standard agonist. Count per second (CPS) measured for the RGFP and RLuc light emitted using 510(10) and 460(25) filters (PerkinElmer, Waltham, MA), respectively, was used to calculate the BRET ratio. All data are expressed as the stimulated BRET ratio, that is, the ratio between CPS from RGFP and RLuc in the presence of ligands minus the BRET ratio in vehicle-treated wells. […] Concentration–response curves to agonists were fitted to the classical four-parameter logistic nonlinear regression model [drawing 1]
(§4) Curves fitting were performed using PRISM 6.0 (GraphPad Software In., San Diego, USA).

[2] = target: T2, NOP receptor (NOP-RLuc/Gβ1-RGFP) (Homo sapiens, UniProt P41146); assay: NOP/G protein interaction, BRET assay in membranes; type: biochemical; conditions: for NOP/G protein pEC50 (CL95%): BRET, membranes (3 μg protein) from HEK293 cells co-expressing NOP-RLuc/Gβ1-RGFP, room temperature, mean of five independent experiments in duplicate, 95% confidence limits; for NOP/G protein CR (concentration ratio): ratio between EC50 of the ligand and that of the standard agonist N/OFQ(1–13)-NH2
T2 construct: expressed in transfected cells; host or cells: HEK293 (enriched plasma membranes)
T2 sequence (P41146 whole entry): as above
Experimental: as §1, §2, §3, §4

Row | Compound | BIAS FACTOR (NOP receptor) | bias factor (CL95%), NOP (NOP receptor) | further results
1 | C[C@H](NC(=O)CNC(=O)[C@@H](NC(=O)[C@H](Cc1ccccc1)NC(=O)CNC(=O)CNC(=O)[C@@H](N)CC1CCCCC1)[C@@H](C)O)C(=O)N[C@@H](CCCNC(=N)N)C(=O)N[C@@H](CCCCN)C(=O)N[C@@H](CO)C(=O)N[C@@H](C)C(=O)N[C@@H](CCCNC(=N)N)C(=O)N[C@@H](CCCCN)C(N)=O [Compound 22, [Cha^1]N/OFQ(1–13)-NH2] | 0.20 | 0.20 (−0.36–0.76) | NOP/β-arrestin 2 α ± sem (intrinsic activity) [1]: 1.03 ± 0.05
2 | [AC5C^11]N/OFQ-NH2 [Compound 38] | 0.31 | 0.31 (−0.19–0.81) | 
3 | C[C@H](NC(=O)CNC(=O)[C@@H](NC(=O)[C@H](Cc1ccccc1)NC(=O)CNC(=O)CNC(=O)[C@@H](N)Cc1ccccc1)[C@@H](C)O)C(=O)N[C@@H](CCCNC(=N)N)C(=O)N[C@@H](CCCCN)C(=O)N[C@@H](CO)C(=O)N[C@H](C)C(=O)N[C@@H](CCCNC(=N)N)C(=O)N[C@@H](CCCCN)C(N)=O [Compound 19, [DAla^11]N/OFQ(1–13)-NH2] | 0.14 | 0.14 (−0.31–0.60) | 
4 | C[C@H](NC(=O)CNC(=O)[C@@H](NC(=O)[C@H](Cc1ccccc1)NC(=O)CNC(=O)CNC(=O)[C@@H](N)Cc1ccccc1)[C@@H](C)O)C(=O)N[C@@H](CCCNC(=N)N)C(=O)N[C@@H](CCCCN)C(=O)N[C@H](CO)C(=O)N[C@@H](C)C(=O)N[C@@H](CCCNC(=N)N)C(=O)N[C@@H](CCCCN)C(N)=O [Compound 18, [DSer^10]N/OFQ(1–13)-NH2] | -0.07 | –0.07 (−0.52–0.39) | 
5 | [Ala^1]N/OFQ(1–13)-NH2 (AGGFTGARKSARK-NH2) [Compound 1] |  |  | NOP/β-arrestin 2 pEC50 (CL95%) [1]: inactive; NOP/G protein pEC50 (CL95%) [2]: Crc incomplete; NOP/G protein CR (concentration ratio) [2]: ∼700
6 | FAGFTGARKSARK-NH2 [Compound 2, [Ala^2]N/OFQ(1–13)-NH2] |  |  | NOP/β-arrestin 2 pEC50 (CL95%) [1]: inactive; NOP/G protein pEC50 (CL95%) [2]: 6.36 (5.89–6.83); NOP/G protein α ± sem (intrinsic activity) ([2]; Emax of ligand / Emax of N/OFQ(1–13)-NH2, mean ± sem of five experiments in duplicate): 0.54 ± 0.07 ^a; NOP/G protein CR (concentration ratio) [2]: 275
7 | [Ala^4]N/OFQ(1–13)-NH2 (FGGATGARKSARK-NH2) [Compound 4] |  |  | NOP/β-arrestin 2 pEC50 (CL95%) [1]: inactive; NOP/G protein pEC50 (CL95%) [2]: Crc incomplete; NOP/G protein CR (concentration ratio) [2]: ∼1000
8 | C[C@H](NC(=O)CNC(=O)[C@@H](NC(=O)[C@H](Cc1ccccc1)NC(=O)CNC(=O)CNC(=O)[C@@H](N)Cc1ccccc1)[C@@H](C)O)C(=O)N[C@@H](CCCNC(=N)N)C(=O)N[C@@H](CCCCN)C(=O)N[C@@H](CO)C(=O)N[C@@H](C)C(=O)N[C@H](CCCNC(=N)N)C(=O)N[C@@H](CCCCN)C(N)=O [Compound 20, [DArg^12]N/OFQ(1–13)-NH2] |  | 0.26 (−0.19–0.71) | 
9 | [DThr^5]N/OFQ(1–13)-NH2 [Compound 14] |  |  | NOP/β-arrestin 2 pEC50 (CL95%) [1]: inactive; NOP/G protein pEC50 (CL95%) [2]: crc incomplete
10 | [AC3C^7]N/OFQ-NH2 [Compound 36] | 0.40 | 0.40 (−0.11–0.90) | 
11 | C[C@H](NC(=O)CNC(=O)[C@@H](NC(=O)[C@H](Cc1ccccc1)NC(=O)CNC(=O)CNC(=O)[C@@H](N)Cc1ccccc1)[C@@H](C)O)C(=O)N[C@H](CCCNC(=N)N)C(=O)N[C@@H](CCCCN)C(=O)N[C@@H](CO)C(=O)N[C@@H](C)C(=O)N[C@@H](CCCNC(=N)N)C(=O)N[C@@H](CCCCN)C(N)=O [Compound 16, [DArg^8]N/OFQ(1–13)-NH2] |  | 0.26 (−0.25–0.77) | 
12 | C[C@H](NC(=O)CNC(=O)[C@@H](NC(=O)[C@H](Cc1ccccc1)NC(=O)CNC(=O)CNC(=O)[C@@H](N)Cc1ccccc1)[C@@H](C)O)C(=O)N[C@@H](CCCNC(=N)N)C(=O)N[C@@H](CCCCN)C(=O)N[C@@H](CO)C(=O)N[C@@H](C)C(=O)N[C@@H](CCCNC(=N)N)C(=O)N[C@H](CCCCN)C(N)=O [Compound 21, [DLys^13]N/OFQ(1–13)-NH2] | 0.03 | 0.03 (−0.42–0.48) | 
13 | [AC5C^7]N/OFQ-NH2 [Compound 37] | 0.08 | 0.08 (−0.41–0.58) | 
14 | [Aib^11]N/OFQ-NH2 [Compound 35] | 0.29 | 0.29 (−0.20–0.79) | 
15 | FGGWTGARKSARK-NH2 [Compound 24, [Trp^4]N/OFQ(1–13)-NH2] | 0.11 | 0.11 (−0.43–0.65) | NOP/β-arrestin 2 α ± sem (intrinsic activity) [1]: 0.77 ± 0.03 ^a
16 | C[C@H](NC(=O)CNC(=O)[C@@H](NC(=O)[C@H](Cc1ccccc1)NC(=O)CNC(=O)CNC[C@@H](N)Cc1ccccc1)[C@@H](C)O)C(=O)N[C@@H](CCCNC(=N)N)C(=O)N[C@@H](CCCCN)C(=O)N[C@@H](CO)C(=O)N[C@@H](C)C(=O)N[C@@H](CCCNC(=N)N)C(=O)N[C@@H](CCCCN)C(N)=O [Compound 30, [Phe^1ψ(CH2–NH)Gly^2]N/OFQ(1–13)-NH2] (H-[X3]GFTGARKSARK-NH2) |  |  | NOP/β-arrestin 2 pEC50 (CL95%) [1]: Inactive
17 | C[C@H](NC(=O)[C@H](CO)NC(=O)[C@H](CCCCN)NC(=O)[C@H](CCCNC(=N)N)NC(=O)[C@@H](C)NC(=O)CNC(=O)[C@@H](NC(=O)[C@H](Cc1ccccc1)NC(=O)CNC(=O)CNC(=O)[C@@H](N)Cc1ccccc1)[C@@H](C)O)C(=O)N[C@@H](CCCNC(=N)N)C(=O)N[C@@H](CCCCN)C(N)=O [Compound 15, [DAla^7]N/OFQ(1–13)-NH2] | 0.21 | 0.21 (−0.28–0.70) | 
